Laboratory results as given in patent US20100048596A2, “Indole Derivatives as Antitumoral Compounds” (Pharma Mar, S.A., priority 2005, published 2010).

Legend:
A549 = type: cell-based; settings: for GI50 / TGI: A549, 48 hours exposure, SRB; for TGI: total growth inhibition (cytostatic effect)
Text: (§1) The finality of these assays is to interrupt the growth of an “in vitro” tumor cell culture by means of a continued exhibition of the cells to the sample to be testing.
(§2) Inhibition of Cell Growth by Colorimetric Assay
(§3) A colorimetric type of assay, using sulforhodamine B (SRB) reaction has been adapted for a quantitative measurement of cell growth and viability [following the technique described by Philip Skehan et al. (1990), New calorimetric cytotoxicity assay for anticancer drug screening, J. Natl. Cancer Inst., 82:1107-1112].
(§4) This form of assay employs 96 well cell culture microplates of 9 mm diameter (Faircloth et al. Methods in cell science, (1988), 11(4), 201-205; Mosmann et al, Journal of Immunological. Methods (1983), 65(1-2), 55-63). Most of the cell lines are obtained from American Type Culture Collection (ATCC) derived from different human cancer types.
(§5) Cells are maintained in RPMI 1640 10% FBS, supplemented with 0.1 g/L penicillin and 0.1 g/L streptomycin sulphate and then incubated at 37° C., 5% CO2 and 98% humidity. For the experiments, cells were harvested from subconfluent cultures using trypsin and resuspended in fresh medium before plating.
(§6) Cells are seeded in 96 well microtiter plates, at 5×10^3 cells per well in aliquots of 195 μL medium, and they are allowed to attach to the plate surface by growing in drug free medium for 18 hours. Afterward, samples are added in aliquots of 5 μL in a ranging from 10 to 10^−8 μg/mL, dissolved in DMSO:EtOH:PBS (0.5:0.5:99). After 48 hours exposure, the antitumor effect is measured by the SRB methodology: cells are fixed by adding 50 μL of cold 50% (wt/vol) trichloroacetic acid (TCA) and incubated for 60 minutes at 4° C. Plates are washed with deionised water and dried. 100 μL of SRB solution (0.4% wt/vol in 1% acetic acid) is added to each microtiter well and incubated for 10 minutes at room temperature. Unbound SRB is removed by washing with 1% acetic acid. Plates are air dried and bound stain is solubilized with Tris buffer. Optical densities are read on an automated spectrophotometric plate reader at a single wavelength of 490 nm.
(§7) The values for mean+/−SD of data from triplicate wells are calculated. Some parameters for cellular responses can be calculated: GI=growth inhibition, TGI=total growth inhibition (cytostatic effect) and LC=cell killing (cytotoxic effect).

MDA-MB-231 = type: cell-based; settings: for GI50 / TGI: MDA-MB-231, 48 hours exposure, SRB; for TGI: total growth inhibition (cytostatic effect)
Text: as §1, §2, §3, §4, §5, §6, §7

HT29 = type: cell-based; settings: for GI50 / TGI: HT29, 48 hours exposure, SRB; for TGI: total growth inhibition (cytostatic effect)
Text: as §1, §2, §3, §4, §5, §6, §7

A-549 = settings: literature; cited from earlier work
P388 = settings: literature; cited from earlier work
IGROV1 tumor cell line = settings: Jiang et al. 2001; cited from earlier work
HT-29 = settings: Sun and Sakemi 1991; cited from earlier work
CCRF-CEM cancer lines = settings: Jiang et al. 2001; cited from earlier work
HOP-92 cancer lines = settings: Jiang et al. 2001; cited from earlier work

| Molecule | GI50 (A549) | CC50 (MDA-MB-231) | GI50 (MDA-MB-231) | TGI (MDA-MB-231) | GI50 (HT29) | TGI (HT29) | further results |
| --- | --- | --- | --- | --- | --- | --- | --- |
| COn1cc(C2CCNC(=NC(C)=O)N2)c2cc(Br)c(Br)cc21 (single isomer, unassigned) [Compound VI] | 1310 nM | 4950 nM | 811 nM | 1.98E−6 Molar | 473 nM | 9.23E−7 Molar | CC50 (A549): 1150 nM; TGI (A549): 4.05E−6 Molar; CC50 (HT29): 2480 nM |
| COn1cc(C2CCNC(=NC(C)=O)N2)c2cc(Br)ccc21 (single isomer, unassigned) [Compound IV] | 630 nM | 5200 nM | 411 nM | 1.37E−6 Molar | 329 nM | 4.65E−7 Molar | TGI (A549): 7.12E−7 Molar; CC50 (HT29): 767 nM |
| CC(=O)N=C1NCCC(c2c[nH]c3ccc(Br)cc23)N1 (single isomer, unassigned) [Compound II] | 656 nM | 6260 nM | 418 nM | 1.52E−6 Molar | 388 nM | 5.67E−7 Molar | – |
| COn1cc(C2CCNC(=N)N2)c2cc(Br)c(Br)cc21 (single isomer, unassigned) [Compound V] | 8700 nM | – | 7960 nM | 2.06E−5 Molar | 7960 nM | 1.74E−5 Molar | – |
| 6-hydroxydiscodermindole | – | – | – | – | – | – | IC50 (A-549): > 5 µg/mL; IC50 (P388): 4.6 µg/mL |
| C1=CN(c2c[nH]c3ccccc23)C(c2c[nH]c3ccccc23)N=C1 (stereo not drawn) [compound 8, 2,3-bis(3-indolyl)pyrimidine] | – | – | – | – | – | – | GI50 (IGROV1 tumor cell line): < 10 nM |
| discodermindole | – | – | – | – | – | – | IC50 (A-549): 4.6 µg/mL; IC50 (HT-29): 12 µg/mL; IC50 (P388): 1.8 µg/mL |
| COc1nc(-c2c[nH]c3ccccc23)cnc1N [compound 19, 2-amino-3methoxyl-5-(3′-indolyl)pyrazine] | – | – | – | – | – | – | GI50 (CCRF-CEM cancer lines): 810 nM; GI50 (HOP-92 cancer lines): 30 nM |
